Measurements from ChEMBL document CHEMBL3045893, “QSAR analysis of N-myristoyltransferase inhibitors: antifungal activity of benzofurans” (Med Chem Res, 2009).

Target: T1, Glycylpeptide N-tetradecanoyltransferase (Candida albicans (strain SC5314 / ATCC MYA-2876) (Yeast), UniProt P30418)
T1 sequence (P30418 whole entry): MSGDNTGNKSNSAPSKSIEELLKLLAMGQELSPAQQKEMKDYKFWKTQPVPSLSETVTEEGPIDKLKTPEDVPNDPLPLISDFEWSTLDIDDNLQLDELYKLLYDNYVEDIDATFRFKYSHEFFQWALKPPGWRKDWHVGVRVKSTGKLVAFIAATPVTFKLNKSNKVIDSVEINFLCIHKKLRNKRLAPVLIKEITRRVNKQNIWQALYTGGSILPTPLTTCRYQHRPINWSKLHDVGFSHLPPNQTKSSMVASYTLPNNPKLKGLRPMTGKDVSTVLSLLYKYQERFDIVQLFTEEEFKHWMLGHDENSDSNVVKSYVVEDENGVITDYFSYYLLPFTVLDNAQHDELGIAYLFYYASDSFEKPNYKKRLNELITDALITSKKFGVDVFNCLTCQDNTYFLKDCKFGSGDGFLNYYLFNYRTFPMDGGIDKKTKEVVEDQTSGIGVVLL
Experiment: Inhibition of candida N-myristoyltransferase

Row | IC50 [nM] | Structure (SMILES)
1 | 1 | CC(=O)c1nccn1-c1oc2cccc(OCCNCc3cccnc3)c2c1C
2 | 8.3 | Cc1c(COc2ccccc2F)oc2cccc(OCCNCc3cccnc3)c12
3 | 110 | Cc1c(COc2cccc(F)c2)oc2cccc(OCCNCc3cccnc3)c12
4 | 83000 | CCOC(=O)c1oc2cccc(OCCNCc3cccnc3)c2c1C(C)C
5 | 2200 | Cc1c(C(=O)Nc2ccccc2)oc2cccc(OCCNCc3cccnc3)c12
6 | 1200 | Cc1c(CCc2ccccc2)oc2cccc(OCCNCc3cccnc3)c12
7 | 72 | Cc1c(COc2ccccc2)oc2cccc(OCCNCc3cccnc3)c12
8 | 73 | Cc1c(COc2ccc(Cl)cc2)oc2cccc(OCCNCc3cccnc3)c12
9 | 100 | CCOC(=O)c1oc2cccc(OCCNCc3cccnc3)c2c1C
10 | 5.2 | Cc1c(COc2ccc(F)cc2)oc2cccc(OCCNCc3cccnc3)c12
11 | 10000 | CCOC(=O)c1oc2cccc(OCCNCc3cccnc3)c2c1CC

The remaining lines, values behind:

Row | Structure (SMILES) | IC50 [nM]
12 | CCOC(=O)c1oc2cccc(OCCCCNC(C)(C)C)c2c1C | 4400
13 | CCOC(=O)c1oc2cccc(OCCCN3CCCCC3)c2c1C | 1600
14 | CCOC(=O)c1oc2cccc(OCCNCc3ccccc3)c2c1C | 3300
15 | CCOC(=O)c1cc2c(OCCNCc3cccnc3)cccc2o1 | 79000
16 | COCc1ccc2oc(-c3oc4cccc(OCCNCc5cccnc5)c4c3C)cc2c1 | 3
17 | CCOC(=O)c1oc2cccc(OCCNC(C)(C)C)c2c1C | 50000
18 | Cc1c(COc2ccc(F)cc2F)oc2cccc(OCCNCc3cccnc3)c12 | 7.5
19 | Cc1c(COc2ccccc2C#N)oc2cccc(OCCNCc3cccnc3)c12 | 17
20 | Cc1c(COc2ccc(C#N)cc2)oc2cccc(OCCNCc3cccnc3)c12 | 9.4
21 | CCOC(=O)c1oc2cccc(OCC(O)CNC(C)(C)C)c2c1C (stereo not drawn) | 1200
22 | CCOC(=O)c1oc2cccc(OCCCCCNC(C)(C)C)c2c1C | 1500
23 | CCOC(=O)c1oc2cccc(OCCNCc3cccnc3)c2c1C1CC1 | 4400
